# How the values were obtained:
# BSJ-03-123 = compound: CC(=O)c1c(C)c2cnc(Nc3ccc(N4CCN(CCOCCOCCOCCNC(=O)COc5cccc6c5C(=O)N(C5CCC(=O)NC5=O)C6=O)CC4)cn3)nc2n(C2CCCC2)c1=O [BSJ-03-123]; assay: increase in dead-cell fraction, 72 h; higher = more death;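 further: breast cancer cell lines in 384-well plates, stained with Hoechst plus LIVE/DEAD far red dye and imaged, cells above an LDR intensity threshold counted dead, Hoechst-negative corpses included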
# YKL-5-124 = compound: C=CC(=O)Nc1ccc(C(=O)Nc2[nH]nc3c2CN(C(=O)N[C@H](CN(C)C)c2ccccc2)C3(C)C)cc1 [YKL-5-124]; assay: as above
# [1] = compound: CCc1cnn2c(NCc3ccc[n+]([O-])c3)cc(N3CCCC[C@H]3CCO)nc12; assay: as above
# THZ531 = compound: CN(C)C/C=C/C(=O)Nc1ccc(C(=O)N2CCC[C@@H](Nc3ncc(Cl)c(-c4c[nH]c5ccccc45)n3)C2)cc1 [THZ531]; assay: as above
# Flavopiridol = compound: CN1CC[C@H](c2c(O)cc(O)c3c(=O)cc(-c4ccccc4Cl)oc23)[C@H](O)C1 [Flavopiridol]; assay: as above
# Neratinib/HKI272 = compound: CCOc1cc2ncc(C#N)c(Nc3ccc(OCc4ccccn4)c(Cl)c3)c2cc1NC(=O)/C=C/CN(C)C [Neratinib/HKI272]; assay: as above
# THZ1 = compound: CN(C)C/C=C/C(=O)Nc1ccc(C(=O)Nc2cccc(Nc3ncc(Cl)c(-c4c[nH]c5ccccc45)n3)c2)cc1 [THZ1]; assay: as above
# [2] = compound: CC(=O)c1c(C)c2cnc(Nc3ccc(N4CCNCC4)cn3)nc2n(C2CCCC2)c1=O; assay: as above
# LEE011/Ribociclib [3] = compound: T1, CN(C)C(=O)c1cc2cnc(Nc3ccc(N4CCNCC4)cn3)nc2n1C1CCCC1 [LEE011/Ribociclib]; assay: as above
# [4] = compound: CCN1CCN(Cc2ccc(Nc3ncc(F)c(-c4cc(F)c5nc(C)n(C(C)C)c5c4)n3)nc2)CC1; assay: as above
# Pictilisib/GDC0941 = compound: CS(=O)(=O)N1CCN(Cc2cc3nc(-c4cccc5[nH]ncc45)nc(N4CCOCC4)c3s2)CC1 [Pictilisib/GDC0941]
# [5] = compound: CCc1cnn2c(NCc3ccc[n+]([O-])c3)cc(N3CCCC[C@H]3CCO)nc12
# Doxorubicin = compound: COc1cccc2c1C(=O)c1c(O)c3c(c(O)c1C2=O)C[C@@](O)(C(=O)CO)C[C@@H]3O[C@H]1C[C@H](N)[C@H](O)[C@H](C)O1 [Doxorubicin]
# Ceritinib/LDK378 = compound: Cc1cc(Nc2ncc(Cl)c(Nc3ccccc3S(=O)(=O)C(C)C)n2)c(OC(C)C)cc1C1CCNCC1 [Ceritinib/LDK378]
# [6] = compound: Cc1nn(C)c(COc2ccc(N3CCN(S(=O)(=O)N(C)C)CC3)cc2)c1-c1cccc2c(CCCOc3cccc4ccccc34)c(C(=O)O)n(CCN3CCOCC3)c12
# LEE011/Ribociclib [7] = compound: T1, LEE011/Ribociclib
# 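Wherever GR50, 72 h is given: breast cancer and non-malignant breast epithelial cell lines, Deep Dye Drop or Dye Drop imaging, nine half-log doses, GR normalized to time-zero plates and DMSO-only controls.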
cell line,measurement,setting,value
HCC1395,increase in dead-cell fraction,BSJ-03-123; 0.001 µM,0.0154
same,increase in dead-cell fraction,BSJ-03-123; 0.003162 µM,0.0016
same,increase in dead-cell fraction,BSJ-03-123; 0.01 µM,0.0046
same,increase in dead-cell fraction,BSJ-03-123; 0.03162 µM,0.0156
same,increase in dead-cell fraction,BSJ-03-123; 0.1 µM,0.0199
same,increase in dead-cell fraction,BSJ-03-123; 0.3162 µM,0.0113
same,increase in dead-cell fraction,BSJ-03-123; 1 µM,0.0316
same,increase in dead-cell fraction,BSJ-03-123; 3.162 µM,0.0201
same,increase in dead-cell fraction,BSJ-03-123; 10 µM,0.13
same,increase in dead-cell fraction,YKL-5-124; 0.001 µM,0.0251
same,increase in dead-cell fraction,YKL-5-124; 0.003162 µM,0.0285
same,increase in dead-cell fraction,YKL-5-124; 0.01 µM,0.0648
same,increase in dead-cell fraction,YKL-5-124; 0.03162 µM,0.0466
same,increase in dead-cell fraction,YKL-5-124; 0.1 µM,0.0638
same,increase in dead-cell fraction,YKL-5-124; 0.3162 µM,0.0762
same,increase in dead-cell fraction,YKL-5-124; 1 µM,0.0835
same,increase in dead-cell fraction,YKL-5-124; 3.162 µM,0.0876
same,increase in dead-cell fraction,YKL-5-124; 10 µM,0.152
same,increase in dead-cell fraction,[1]; 0.0001 µM,0.005
same,increase in dead-cell fraction,[1]; 0.0003162 µM,-0.0006
same,increase in dead-cell fraction,[1]; 0.001 µM,-0.004
same,increase in dead-cell fraction,[1]; 0.003162 µM,0.0091
same,increase in dead-cell fraction,[1]; 0.01 µM,0.0238
same,increase in dead-cell fraction,[1]; 0.03162 µM,0.263
same,increase in dead-cell fraction,[1]; 0.1 µM,0.368
same,increase in dead-cell fraction,[1]; 0.3162 µM,0.378
same,increase in dead-cell fraction,[1]; 1 µM,0.387
same,increase in dead-cell fraction,THZ531; 0.0001 µM,0.0083
same,increase in dead-cell fraction,THZ531; 0.0003162 µM,-0.0121
same,increase in dead-cell fraction,THZ531; 0.001 µM,0.0071
same,increase in dead-cell fraction,THZ531; 0.003162 µM,0.0027
same,increase in dead-cell fraction,THZ531; 0.01 µM,-0.0161
same,increase in dead-cell fraction,THZ531; 0.03162 µM,-0.0019
same,increase in dead-cell fraction,THZ531; 0.1 µM,0.0618
same,increase in dead-cell fraction,THZ531; 0.3162 µM,0.113
same,increase in dead-cell fraction,THZ531; 1 µM,0.242
same,increase in dead-cell fraction,Flavopiridol; 0.0001 µM,-0.0165
same,increase in dead-cell fraction,Flavopiridol; 0.0003162 µM,0.0036
same,increase in dead-cell fraction,Flavopiridol; 0.001 µM,-0.001
same,increase in dead-cell fraction,Flavopiridol; 0.003162 µM,0.0024
same,increase in dead-cell fraction,Flavopiridol; 0.01 µM,0.0179
same,increase in dead-cell fraction,Flavopiridol; 0.03162 µM,-0.0053
same,increase in dead-cell fraction,Flavopiridol; 0.1 µM,-0.0066
same,increase in dead-cell fraction,Flavopiridol; 0.3162 µM,0.0777
same,increase in dead-cell fraction,Flavopiridol; 1 µM,0.306
same,increase in dead-cell fraction,Neratinib/HKI272; 0.0003162 µM,0.0064
same,increase in dead-cell fraction,Neratinib/HKI272; 0.001 µM,-0.004
same,increase in dead-cell fraction,Neratinib/HKI272; 0.003162 µM,0.0024
same,increase in dead-cell fraction,Neratinib/HKI272; 0.01 µM,0.0027
same,increase in dead-cell fraction,Neratinib/HKI272; 0.03162 µM,-0.0039
same,increase in dead-cell fraction,Neratinib/HKI272; 0.1 µM,0.0013
same,increase in dead-cell fraction,Neratinib/HKI272; 0.3162 µM,0.0091
same,increase in dead-cell fraction,Neratinib/HKI272; 1 µM,0.012
same,increase in dead-cell fraction,Neratinib/HKI272; 3.162 µM,0.141
same,increase in dead-cell fraction,THZ1; 0.0001 µM,-0.017
same,increase in dead-cell fraction,THZ1; 0.0003162 µM,-0.002
same,increase in dead-cell fraction,THZ1; 0.001 µM,-0.0182
same,increase in dead-cell fraction,THZ1; 0.003162 µM,0.0057
same,increase in dead-cell fraction,THZ1; 0.01 µM,0.0001
same,increase in dead-cell fraction,THZ1; 0.03162 µM,0.0489
same,increase in dead-cell fraction,THZ1; 0.1 µM,0.193
same,increase in dead-cell fraction,THZ1; 0.3162 µM,0.25
same,increase in dead-cell fraction,THZ1; 1 µM,0.469
same,increase in dead-cell fraction,[2]; 0.0003162 µM,-0.0002
same,increase in dead-cell fraction,[2]; 0.001 µM,-0.0025
same,increase in dead-cell fraction,[2]; 0.003162 µM,-0.0071
same,increase in dead-cell fraction,[2]; 0.01 µM,0.0129
same,increase in dead-cell fraction,[2]; 0.03162 µM,0.0232
same,increase in dead-cell fraction,[2]; 0.1 µM,0.0283
same,increase in dead-cell fraction,[2]; 0.3162 µM,0.0367
same,increase in dead-cell fraction,[2]; 1 µM,0.0326
same,increase in dead-cell fraction,[2]; 3.162 µM,0.0325
same,increase in dead-cell fraction,LEE011/Ribociclib [3]; 0.001 µM,-0.0137
same,increase in dead-cell fraction,LEE011/Ribociclib [3]; 0.003162 µM,0.0153
same,increase in dead-cell fraction,LEE011/Ribociclib [3]; 0.01 µM,0.0143
same,increase in dead-cell fraction,LEE011/Ribociclib [3]; 0.03162 µM,0.0111
same,increase in dead-cell fraction,LEE011/Ribociclib [3]; 0.1 µM,0.0234
same,increase in dead-cell fraction,LEE011/Ribociclib [3]; 0.3162 µM,0.0259
same,increase in dead-cell fraction,LEE011/Ribociclib [3]; 1 µM,0.0472
same,increase in dead-cell fraction,LEE011/Ribociclib [3]; 3.162 µM,0.0158
same,increase in dead-cell fraction,LEE011/Ribociclib [3]; 10 µM,0.0578
same,increase in dead-cell fraction,[4]; 0.001 µM,0.0055
same,increase in dead-cell fraction,[4]; 0.003162 µM,-0.0031
same,increase in dead-cell fraction,[4]; 0.01 µM,0.0123
same,increase in dead-cell fraction,[4]; 0.03162 µM,0.0119
same,increase in dead-cell fraction,[4]; 0.1 µM,0.0163
same,increase in dead-cell fraction,[4]; 0.3162 µM,0.0184
same,increase in dead-cell fraction,[4]; 1 µM,0.0343
same,increase in dead-cell fraction,[4]; 3.162 µM,0.0632
same,increase in dead-cell fraction,[4]; 10 µM,0.447
same,"GR50, 72 h",Pictilisib/GDC0941,1.43 µM
same,"GR50, 72 h",[5],0.0124 µM
same,"GR50, 72 h",Doxorubicin,0.0179 µM
same,"GR50, 72 h",Ceritinib/LDK378,1.6 µM
same,"GR50, 72 h",[6],> 10 µM
same,"GR50, 72 h",LEE011/Ribociclib [7],3.67 µM

# From the supplement of paper PMC9663587
